Measurements from patent publication US8722023B2, “Depigmenting or brigthening cosmetic composition comprising at least one oxazolin as an active ingredient” (Laboratoires Expanscience, priority 2005, dated 2014).
One block for each compound: values may come before it.

How the values were obtained:
[1] = system: Melanocyte/keratinocyte co-cultures (NHEM-NHEK; M/K); experiment: Viability (MTT test) of M/K co-cultures; format: cell-based, human; conditions: for Viability percentage (MTT test): 240 hours
Procedure: (§1) Melanocyte/keratinocyte co-cultures (NHEM-NHEK; M/K) are incubated for 240 hours, in the absence or presence of OX100. The quantity of melanin present in the cells after incubation is measured by spectrophotometry. 1) M/K co-cultures are inoculated in medium free of PMA (phorbol myristate acetate) and are brought to 60-80% confluence for the test. 2) Three identical culture series are prepared in order to measure: • cytotoxicity by a MTT (tetrazolium salt) test and by morphological observation of the cells, • quantity of melanin, • quantity of total proteins (in order to determine the ratio of melanin to total protein). 3) Treatment conditions are as follows: • OX100 at three concentrations: 2×10^−6, 10^−5, 2×10^−5 M. • Kojic acid (reference depigmenting molecule). • IBMX (3-isobutyl-1-methylxanthine, pro-pigmenting reference molecule). Each treatment condition is carried out in triplicate. The co-cultures are incubated for 240 hours in the presence or absence of the compounds above. Irradiation by ultraviolet rays (25 mJ/cm^2 of UVB+300 mJ/cm^2 of UVA) is carried out four times per day for consecutive four days.

[2] = system: normal human melanocytes in co-culture (NHEM-NHEK; M/K); experiment: Production of melanin in M/K co-cultures, irradiated or not; format: cell-based; conditions: for quantity of melanin compared to the control (control = 100) / variation of the quantity of melanin compared to the control (value in brackets): 240 hours
Procedure: as §1, with “The effect of OX100 was studied on the production of melanin by normal human melanocytes in co-culture (NHEM-NHEK; M/K) irradiated or not. Melanocyte/keratinocyte” for “Melanocyte/keratinocyte”, “days. At the end of the treatment, the cellular monolayers are washed. After cell lysis, the melanin crystals are extracted and solubilized. The melanin is quantified by measurement of the OD (optical density) at 450 nm and by comparison with a range of melanin standards.” for “days.”

[3] = Overall assessment of the product's acceptability and effectiveness by the volunteers; format: in vivo, human (adult female volunteers); design: unit not given here; conditions: panel of 21 volunteers
Source text: Overall Assessment of the Product's Acceptability and Effectiveness by the Volunteers

[4] = system: skin of the hands (spot-free area and pre-identified pigmentation spot); experiment: Colorimetric measurements (Chromameter) on the hands, treated hand vs. control hand; format: in vivo, human (adult female volunteers); conditions: for Individual typological angle (ITA), treated hand / Lightness variable L*, treated hand: mean ± SEM
Source text: Among these volunteers, 14% were North-African in origin and 86% Mediterranean, including 76% of phototype IV and 10% of phototype V. All of these volunteers had lentigo pigmentation spots on the hands and most had them on the face. COLORIMETRIC MEASUREMENTS (Chromameter™): Variance homogeneity and distribution normality were verified in all cases. Measurements are taken on the hands, in an area without pigmentation spots. The results correspond to the means and deviations with respect to the mean-SEM. The time and product effects results with values less than 0.05 are statistically significant. The result corresponding to both the time and product effects gives the value of the probability of the differences Δ (T=6 weeks minus T0) by the Student's t-test in a paired series (bilateral significance test, p<0.05). Measurements are carried out on the hands in an area with pigmentation spots. The results correspond to the means and deviations with respect to the mean-SEM.

[5] = Assessment of cutaneous acceptability by the volunteers; format: in vivo, human (adult female volunteers); design: volunteers reporting no cutaneous manifestations: unit not given here
Source text: Assessment of Cutaneous Acceptability by the Volunteers

[6] = system: lentigo pigmentation spots, skin of hands and face; experiment: Clinical evaluation of hands and face after six weeks of application; format: in vivo, human (adult female volunteers)
Source text: Among these volunteers, 14% were North-African in origin and 86% Mediterranean, including 76% of phototype IV and 10% of phototype V. All of these volunteers had lentigo pigmentation spots on the hands and most had them on the face. The results of the statistically significant variation, after six weeks of application, of some of the criteria evaluated are given in table 6 below: The percentages correspond to variations with respect to the initial evaluations, the p value corresponds to probability p with respect to the initial evaluations (Wilcoxon test, bilateral significance test, p<0.05). For measurements of pigmentation spot intensity, the intensity of the spot is identified beforehand. The results of the statistically significant variation, after six weeks of application, of some of the criteria evaluated are given in table 7 below: The percentages correspond to variations with respect to the initial evaluations, the p value corresponds to probability p with respect to the initial evaluations (Wilcoxon test, bilateral significance test, p<0.05). For measurements of pigmentation spot intensity, the intensity of the spot is identified beforehand.

[7] = area with spots (pre-identified pigmentation spot), T = 0 (before treatment)
[8] = area with spots (pre-identified pigmentation spot), T = 6 weeks
[9] = spot-free area of the hands, T = 0 (before treatment)
[10] = spot-free area of the hands, T = 6 weeks

Compound: CC(C)Cn1c(=O)n(C)c(=O)c2[nH]cnc21 [IBMX, 3-isobutyl-1-methylxanthine, reference compound]
Viability percentage (MTT test) ([1]; 200 μM, With UV): 111%
Viability percentage (MTT test) ([1]; 200 μM, Without UV): 118%
quantity of melanin compared to the control (control = 100) ([2]; 200 μM, With UV): 114%
quantity of melanin compared to the control (control = 100) ([2]; 200 μM, Without UV): 118%
variation of the quantity of melanin compared to the control (value in brackets) ([2]; With UV): +14%
variation of the quantity of melanin compared to the control (value in brackets) ([2]; Without UV): +15%

Compound: O=c1cc(CO)occ1O [Kojic acid, reference compound]
Viability percentage (MTT test) ([1]; 0.0156 mg/ml, With UV): 99%
Viability percentage (MTT test) ([1]; 0.0156 mg/ml, Without UV): 102%
quantity of melanin compared to the control (control = 100) ([2]; 15.6 μg/ml, With UV): 83%
variation of the quantity of melanin compared to the control (value in brackets) ([2]; 15.6 μg/ml, With UV): −20%
quantity of melanin compared to the control (control = 100) ([2]; 15.6 μg/ml, Without UV): 74%
variation of the quantity of melanin compared to the control (value in brackets) ([2]; 15.6 μg/ml, Without UV): −35%

volunteers reporting no cutaneous manifestations ([5]; panel of 21 volunteers): Ninety-five
volunteers reporting no ocular manifestations ([5]; panel of 21 volunteers): 100%
Compound: CCCCCCCCCCCC1=NC(C)(C)CO1 [OX100, 2-undecyl-4,4-dimethyl-1,3-oxazoline]
volunteers reporting somewhat good to good effectiveness as a depigmenting/lightening product [3]: Thirty-eight
Viability percentage (MTT test) ([1]; 2 × 10^−5 M, With UV): 105%
Viability percentage (MTT test) ([1]; 2 × 10^−5 M, Without UV): 115%
Viability percentage (MTT test) ([1]; 2 × 10^−6 M, With UV): 97%
Viability percentage (MTT test) ([1]; 2 × 10^−6 M, Without UV): 102%
Viability percentage (MTT test) ([1]; 10^−5 M, With UV): 99%
Viability percentage (MTT test) ([1]; 10^−5 M, Without UV): 108%
toxicity for the M/K co-cultures, in words ([1]; at the concentrations tested): not toxic
quantity of melanin compared to the control (control = 100) ([2]; 2 × 10^−5 M, With UV): 104%
variation of the quantity of melanin compared to the control (value in brackets) ([2]; 2 × 10^−5 M, With UV): +4%
quantity of melanin compared to the control (control = 100) ([2]; 2 × 10^−5 M, Without UV): 89%
variation of the quantity of melanin compared to the control (value in brackets) ([2]; 2 × 10^−5 M, Without UV): −12%
quantity of melanin compared to the control (control = 100) ([2]; 2 × 10^−6 M, With UV): 100%
variation of the quantity of melanin compared to the control (value in brackets) ([2]; 2 × 10^−6 M, With UV): 0%
quantity of melanin compared to the control (control = 100) ([2]; 2 × 10^−6 M, Without UV): 102%
variation of the quantity of melanin compared to the control (value in brackets) ([2]; 2 × 10^−6 M, Without UV): −1%
quantity of melanin compared to the control (control = 100) ([2]; 10^−5 M, With UV): 99%
variation of the quantity of melanin compared to the control (value in brackets) ([2]; 10^−5 M, With UV): −1%
quantity of melanin compared to the control (control = 100) ([2]; 10^−5 M, Without UV): 104%
variation of the quantity of melanin compared to the control (value in brackets) ([2]; 10^−5 M, Without UV): +4%
effect on melanin in the irradiated study model, in words ([2]; irradiated co-cultures (UVB + UVA)): neutralizes the effect of ultraviolet rays
inhibition of the synthesis of melanin ([2]; non-irradiated co-cultures, 2.10^−5 M, p<0.01): roughly 12%
Individual typological angle (ITA), treated hand [4, 7]: 5.0 ± 4.5
Lightness variable L*, treated hand [4, 7]: 51.2 ± 1.1
Individual typological angle (ITA), treated hand [4, 8]: 11.0 ± 5.2
Lightness variable L*, treated hand [4, 8]: 52.4 ± 1.2
increase in chromaticity coordinate L* ([4]; area with spots, six weeks of applications, compared to initial values and control hand, p=0.048): +2%
Individual typological angle (ITA), treated hand [4, 9]: 38.5 ± 2.4
Lightness variable L*, treated hand [4, 9]: 58.4 ± 0.7
Individual typological angle (ITA), treated hand [4, 10]: 44.1 ± 2.4
Lightness variable L*, treated hand [4, 10]: 59.2 ± 0.7
increase in ITA ([4]; spot-free area, six weeks of applications, compared to initial values and control hand, p=0.008): +13%
increase in chromaticity coordinate L* ([4]; spot-free area, six weeks of applications, compared to initial values and control hand, p=0.017): +2%
dermatological tolerance, conclusion in words ([5]; conclusion of Example 6): dermatologically well-tolerated
COLOR LIGHTNESS, variation with respect to initial evaluation ([6]; face, p = 0.0001 (Wilcoxon)): +22% (p = 0.0001)
INTENSITY OF THE PIGMENTATION SPOT, variation with respect to initial evaluation ([6]; face, p = 0.0196 (Wilcoxon)): −8% (p = 0.0196)
COLOR UNIFORMITY, variation with respect to initial evaluation ([6]; face, p = 0.0455 (Wilcoxon)): +4% (p = 0.0455)
SKIN LIGHTNESS, variation with respect to initial evaluation ([6]; hands, p = 0.0002 (Wilcoxon)): +16% (p = 0.0002)
INTENSITY OF THE PIGMENTATION SPOT, variation with respect to initial evaluation ([6]; hands, p = 0.0143 (Wilcoxon)): −5% (p = 0.0143)
SKIN UNIFORMITY, variation with respect to initial evaluation ([6]; hands, p = 0.0209 (Wilcoxon)): +10% (p = 0.0209)
